Consider two compounds from US20150266864A1, “HETEROAROMATIC COMPOUNDS, METHOD FOR PREPARING THE COMPOUNDS, PHARMACEUTICAL COMPOSITIONS, USES AND METHOD FOR TREATING ACUTE AND CHRONIC PAIN” (CRISTÁLIA PRODUTOS QUÍMICOS FARMACÊUTICOS LTDA, priority 2012, published 2015).

The structures appear in SMILES notation.

The test system of data set [1] is rats subjected to SNL. Description: Spinal nerve ligation (SNL) L5 model, thermal hyperalgesia. In kind it is in vivo, rat. As to the method: (§1) This experimental model was proposed by Kim and Chung [Kim, S. H.; Chung, J. M. Pain 1992, 50: 355-363] and consists of ligation of spinal nerves. Male Wistar rats, 180-220 g, were anesthetized with a mixture of ketamine and xylazine (60 mg/kg and 5 mg/kg, respectively) intraperitoneally. After the dorsal region asepsy, an incision was made between L5 and S1. The L6 transverse process was removed for locating the nerves L4 and L5, which were carefully isolated, and tight ligation of the L5 nerve with 6.0 silk thread was made, interrupting flow of the axon of the nerve. After this procedure, para-spinal muscles and skin were sutured, and then a topical antiseptic was applied. False operated animals (sham) were subjected to the same procedure, however the spinal nerve was not ligated.
This method aims to evaluate the animal behavior in response to hyperalgesic phenomenon resulting from the injury induced by the ligament of spinal nerve (L5). In this regard, paw withdrawal in response to thermal stimulus was used, and the thermal stimulus was induced by the radiant heat of an incandescent lamp bulb. The paw withdrawal test was performed as described for the assessment of thermal hyperalgesia in the sciatic nerve chronic constrictive injury model.
(§2) Differences were considered significant when p<0.05.
(§3) The treatment started on the 7th day after surgery. Compounds were diluted in water or DMSO and administered through intraperitoneal route on daily basis, during 7 days, at a dose of […]. The effectiveness of tested compounds was assessed on days 1, 3, and 7 days after treatment, always before the next administration of the compound. Latencies were also assessed on days 1, 3, and 7 after treatment interruption.

For data set [2], the system named is Swiss mice. The data set can be described thus: Hot plate model, assay for acute pain. In kind it is in vivo. The conditions noted are these: ip, 32.25 μmol/kg.
The test system of data set [3] is Swiss mice. Description: Hot plate model, assay for acute pain. In kind it is in vivo. The conditions noted are these: ip, 32.25 μmol/kg, plate 52° C., compared to morphine sulfate at the same dose. From the text: The antinociceptive activity (AA) of the present invention selected compounds (C3, C9, C11, C12, C13, C15 and C17) was investigated in hot plate model [Hot Plate Model LE7406, Scientific Inc.] described by Kuraishi et al. [Kuraishi, Y., Harada, Y., Aratani, S., Satoh, M., Takagi, H. Brain Research 1983.273, 245-2523]. This method is valid to evaluate the analgesic activity of substances acting on the central nervous system. Swiss mice weighing 20-25 g were placed on a metal plate heated up to 52° C. The animals were withdrawn from the hot plate at the time they lead their forepaws toward the mouth to lick, being this an indicative of pain second Le Bars et al. [Le Bars, D., Gozariu, M., Cadden, S. W. Animal models of nociception. Pharmacol. Rev. 2001, 53 (4), 597-652]. In this way, it was analyzed how long the animal, treated or not (control) with the analgesic substance, remained on the plate at 52° C.; the longest residence time of an animal on the plate was 35 seconds. This time limit (or cut off) (35 s) was determined by the average of three measurements of latency control values, obtained for each animal multiplied by three, to prevent any kind of tissue injury on the footpad of animals's paw due to long permanence on the heated surface. The protocol consisted in the intraperitoneal (ip) injection of the selected compounds of the present invention at a dose of 32.25 μmol/kg. The antinociceptive activity was evaluated at intervals of 10 minutes until effect completely disappear and, compared to morphine sulfate ([…]) at the same dose of 32.25 μmoles/kg (12.2 mg/kg). The investigated parameter is the latency of reflex to paw withdrawal in response to thermal stimulus. The results were expressed as percentage of AA, which was calculated according to Equation 1 for each experiment.

The test system of the next data set is Swiss-type male mice. Description: RotaRod performance test, motor coordination. Particulars: for Mice residence time on the rotational cylinder: 9 rpm, cut off 180 s, mean ± SEM. On the procedure:
The assessment of motor coordination in mice, by the rotarod performance test, was carried out to detect any possible sedative or muscle relaxant effect caused by the compounds of the present invention, previously tested in acute and neuropathic pain models. This test was carried out according to the method of described by Dunham & Miya and animal motor coordination was evaluated using RotaRod apparatus [Dunham M. S. & Miya. R. T. (1957). J. Amer. Pharmac. Assoc. Sci. Edit. 1957, 46, 208-209].
The RotaRod apparatus (Model 412 EFF, Insight Equipements, Brazil) is a device that measures motor coordination and thus evaluates balance alterations in mice. The apparatus consists of an acrylic box splited into four compartments with a rotational cylinder among them. The cylinder rotates at constant speed driven by a motor and regulated to the constant speed mode of 5-37 revolutions per minute (rpm). In this study the speed was set up to 9 rpm.
To remain on the rotational cylinder, the animal needs to move around, so that the motor coordination can be quantified. The four compartments have drop detection system, through the impact, a microprocessor circuit, for timing the permanence of the animal at the compartment, and for counting the number of falls.
The day before the test, Swiss-type male mice (19-25 g) were placed on the rotational cylinder, set up to the constant speed mode of 9 rpm for adaptation and learning. A group of 10 mice were used for each tested compound, and the total period spent on the rotational cylinder (in seconds) was recorded for a period of 180 seconds (cut off time) and it was accept a maximum of three falls for each animal. Motor coordination was assessed at times 0 (before treatment), 15, 30, 60 and 120 minutes after compounds administration at a dose of 32.25 μmol/kg.
All compounds were administered intraperitoneally (ip).
The Student's t-test was also used to compare means between two experimental groups. Differences were considered significant when p<0.05.

Data set [4] has as its system rats subjected to SNL. Description: Spinal nerve ligation (SNL) L5 model, mechanical allodynia (digital Von Frey). In kind it is in vivo, rat. As to the method: as §1
To evaluate the development of mechanical allodynia, digital analgesimeter (Model EFF301; Insight Equipments), digitalized version coupled to a pointed filament (Von Frey model variant) was used. This test aims to assess changes in tactile sensitivity in response to a mechanical stimulus as a result of a neural damage. The device consisted of a hand-held force transducer fitted with a sensor tip, through which a pressure with increasing strength is applied against the footpad of the animals hindpaw to assess the threshold of paw withdrawal, that is, the digital analgesimeter records the maximal strength, in grams (g), in which the animal withstands until the paw withdrawal reflex.
Animals were placed in individual acrylic boxes and let to acclimate for 30 min before the beginning of the test. After this period, the thresholds of hindpaw withdrawal were determinded. For each hindpaw, five records of the withdrawal thresholds were made, and the average for each hindpaw was defined as the paw withdrawal threshold control.
as §3, §2

Setting [5] is: ip during 7 days, 32.25 μmol/kg.
[6] abbreviates: T 15 min after ip administration, 32.25 μmol/kg.
[7] abbreviates: T 30 min after ip administration, 32.25 μmol/kg (diazepam 2 mg/kg).
Setting [8] is: T 60 min after ip administration, 32.25 μmol/kg (diazepam 2 mg/kg).
The mark [9] stands for this setting: T 120 min after ip administration, 32.25 μmol/kg (diazepam 2 mg/kg).

`CCN1CCN(CCc2c[nH]nc2-c2ccc(F)cc2)CC1.Cl.Cl.Cl.O.O.O` [C12, 1-ethyl-4-{2-[3-(4-fluorophenyl)-1H-pyrazol-4-yl]ethyl}piperazine trihydrochloride trihydrate]: the “reversal of hyperalgesia signs associated with neuropathic pain” value in the data set on rats subjected to SNL [1] (setting [5]) is “effective in reverse the hyperalgesia and allodynia signs”. In addition, in the data set with rats subjected to SNL [1] (since the 3rd day of treatment, 32.25 μmol/kg ip), the “increase on the latency vs control post-surgery” value is listed as “statistically significant increase”. In addition, the “side effects compared to morphine” value in the data set on Swiss mice [2] is “no side effects of conventional morphine”. In addition, the “antinociceptive activity (AA), hot plate” value in the data set with Swiss mice [3] was “exhibit antinociceptive activity of intensity and kinetics similar to morphine sulfate”. The “animal residence time on the rotational cylinder compared to controls” value with Swiss-type male mice (15 minutes after administration, 32.25 μmol/kg) is “equal to the time observed for the negative control, and significantly higher than the time observed for the control amitriptyline hydrochloride”. Further, the “Mice residence time on the rotational cylinder” value (shortened to “Mice residence time”) in the data set on Swiss-type male mice (setting [6]) came to 179.6 s; in the data set with Swiss-type male mice (setting [7]) it was 178.6 s; with Swiss-type male mice (setting [8]), 178.2 s; in the data set with Swiss-type male mice (setting [9]) it was 179.8 s. For the same compound, the “paw withdrawal threshold, mechanical allodynia” value in the data set with rats subjected to SNL [4] (after 3 days of treatment, 32.25 μmol/kg ip, p<0.05) is on record as “significant (p<0.05) paw withdrawal threshold”. Moreover, the “reversal of allodynia signs associated with neuropathic pain” value with rats subjected to SNL [4] (setting [5]) was “effective in reverse the hyperalgesia and allodynia signs”.

Compound `OC1(c2ccc(Cl)cc2)CCN(CCc2c[nH]nc2-c2ccc(F)cc2)CC1` [C13, 4-(4-chlorophenyl)-1-{2-[3-(4-fluorophenyl)-1H-pyrazol-4-yl]ethyl}piperidin-4-ol] showed a melting point of 142 to 144 °C. The “side effects compared to morphine” value in the data set on Swiss mice [2] is recorded as “no side effects of conventional morphine”. Further, in the data set with Swiss mice [3], the “antinociceptive activity (AA), hot plate” value was “exhibit antinociceptive activity of intensity and kinetics similar to morphine sulfate”. Moreover, in the data set on Swiss-type male mice (setting [6]), the “Mice residence time” value is reported as 100.9 s. For the same compound, the “Mice residence time” value with Swiss-type male mice (setting [7]) worked out at 95.5 s. Further, the “Mice residence time” value with Swiss-type male mice (setting [8]) was 143.7 s. In addition, the “Mice residence time” value in the data set with Swiss-type male mice (setting [9]) is recorded as 152.4 s.
